Laboratory results from PubChem BioAssay AID296 (DTP/NCI, 2004).
Several values for one entry are separate records, joined by “and”; a condition that tells them apart may be missing. Equal entries are not always repeated. Records with an inconclusive call do not appear.

System: MX-1 breast xenograft, nude mice, tumor weight T/C
Test: NCI In Vivo Anticancer Drug Screen. Data for tumor model Human Mammary Carcinoma MX-1 Xenograft (intrarenal inoculation) in NU/NU Swiss (nude) mice
Conditions: endpoint: mean tumor weight change, higher = larger tumour
Procedure, shortened: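 Compound dosed to mice with transplantable tumor; vehicle group as control. Endpoint survival or tumour size, reported as T/C.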

[1] = dose: 300.0 mg/kg/injection, schedule: Q04DX003 (sc), vehicle: Klucel (hydroxypropylcellulose) (HPC)
[2] = dose: 600.0 mg/kg/injection, schedule: Q04DX003 (sc), vehicle: Klucel (hydroxypropylcellulose) (HPC)
[3] = dose: 1200.0 mg/kg/injection, schedule: Q04DX003 (sc), vehicle: Klucel (hydroxypropylcellulose) (HPC)
[4] = dose: 25.0 mg/kg/injection, schedule: Q01DX010 (sc), vehicle: saline with Tween-80
[5] = dose: 50.0 mg/kg/injection, schedule: Q01DX010 (sc), vehicle: saline with Tween-80
[6] = dose: 100.0 mg/kg/injection, schedule: Q01DX010 (sc), vehicle: saline with Tween-80
[7] = dose: 200.0 mg/kg/injection, schedule: Q01DX010 (sc), vehicle: saline with Tween-80

## COc1cccc2c1C(=O)c1c(O)c3c(c(O)c1C2=O)CC(O)(C(=O)CO)CC3OC1CC(N)C(O)C(C)O1 (configuration not stated)
dose: 12.0 mg/kg/injection, schedule: Q01DX010 (sc), vehicle: saline
  T/C: 90 % of control
dose: 24.0 mg/kg/injection, schedule: Q01DX010 (sc), vehicle: saline
  T/C: 80 % of control
dose: 25.0 mg/kg/injection, schedule: Q01DX010 (sc), vehicle: saline
  T/C: 78 % of control
dose: 37.5 mg/kg/injection, schedule: Q01DX010 (sc), vehicle: water
  T/C: 281 % of control
dose: 48.0 mg/kg/injection, schedule: Q01DX010 (sc), vehicle: saline
  T/C: 9 % of control
dose: 50.0 mg/kg/injection, schedule: Q01DX010 (sc), vehicle: saline
  T/C: 22 % of control
dose: 75.0 mg/kg/injection, schedule: Q01DX010 (sc), vehicle: water
  T/C: 229 % of control
dose: 96.0 mg/kg/injection, schedule: Q01DX010 (sc), vehicle: saline
  T/C: 4 % of control
dose: 150.0 mg/kg/injection, schedule: Q01DX010 (sc), vehicle: water
  T/C: 233 % of control
dose: 300.0 mg/kg/injection, schedule: Q01DX010 (sc), vehicle: water
  T/C: 81 % of control

## COc1ccc2c(ccc3oc([N+](=O)[O-])cc32)c1
[1]
  T/C: 99 % of control
[2]
  T/C: 72 % of control
[3]
  T/C: 71 % of control
dose: 2400.0 mg/kg/injection, schedule: Q04DX003 (sc), vehicle: Klucel (hydroxypropylcellulose) (HPC)
  T/C: 36 % of control

## N#CN=[N+]([O-])c1ccc(C(=O)O)cc1
dose: 11.25 mg/kg/injection, schedule: Q04DX003 (sc), vehicle: Klucel (hydroxypropylcellulose) (HPC)
  T/C: 124 % of control
dose: 22.5 mg/kg/injection, schedule: Q04DX003 (sc), vehicle: Klucel (hydroxypropylcellulose) (HPC)
  T/C: 87 % of control
dose: 45.0 mg/kg/injection, schedule: Q04DX003 (sc), vehicle: Klucel (hydroxypropylcellulose) (HPC)
  T/C: 103 % of control

## COC(=O)[C@@]12OC[C@]34[C@H]([C@@H](O)[C@@H]1O)[C@@]1(C)CC(=O)C(O)=C(C)[C@@H]1C[C@H]3OC(=O)[C@H](OC(=O)/C=C(\C)C(C)C)[C@@H]24
dose: 0.25 mg/kg/injection, schedule: Q04DX003 (sc), vehicle: saline + alcohol
  T/C: 52 % of control
dose: 0.5 mg/kg/injection, schedule: Q04DX003 (sc), vehicle: saline + alcohol
  T/C: 158 % of control
dose: 1.0 mg/kg/injection, schedule: Q04DX003 (sc), vehicle: saline + alcohol
  T/C: 100 % of control
dose: 2.0 mg/kg/injection, schedule: Q04DX003 (sc), vehicle: saline + alcohol
  T/C: 90 % of control

## C(C#CCN1CCOCC1)#CCN1CCOCC1
[1]
  T/C: 72 % of control
[2]
  T/C: 84 % of control
[3]
  T/C: 61 % of control

## COc1ccc2c(NCCCCCCNc3c4ccccc4nc4cc(OC)ccc34)c3ccccc3nc2c1
dose: 1.25 mg/kg/injection, schedule: Q01DX010 (sc), vehicle: lactic acid
  T/C: 81 % of control
dose: 2.5 mg/kg/injection, schedule: Q01DX010 (sc), vehicle: lactic acid
  T/C: 165 % of control
dose: 5.0 mg/kg/injection, schedule: Q01DX010 (sc), vehicle: lactic acid
  T/C: 79 % of control
dose: 10.0 mg/kg/injection, schedule: Q01DX010 (sc), vehicle: lactic acid
  T/C: 92 % of control

## N/C=N/O
dose: 100.0 mg/kg/injection, schedule: Q01DX010 (sc), vehicle: saline
  T/C: 107 % of control
dose: 200.0 mg/kg/injection, schedule: Q01DX010 (sc), vehicle: saline
  T/C: 53 % of control
dose: 400.0 mg/kg/injection, schedule: Q01DX010 (sc), vehicle: saline
  T/C: 81 % of control

## [Cl][Mn][Cl]
dose: 37.5 mg/kg/injection, schedule: Q04DX003 (sc), vehicle: saline
  T/C: 115 % of control
dose: 75.0 mg/kg/injection, schedule: Q04DX003 (sc), vehicle: saline
  T/C: 109 % of control
dose: 150.0 mg/kg/injection, schedule: Q04DX003 (sc), vehicle: saline
  T/C: 104 % of control

## N=C(N)c1ccc(/C=C/c2ccc(C(=N)N)cc2O)cc1
dose: 37.5 mg/kg/injection, schedule: Q04DX003 (sc), vehicle: water
  T/C: 87 % of control
dose: 75.0 mg/kg/injection, schedule: Q04DX003 (sc), vehicle: water
  T/C: 83 % of control
dose: 150.0 mg/kg/injection, schedule: Q04DX003 (sc), vehicle: water
  T/C: 89 % of control
dose: 300.0 mg/kg/injection, schedule: Q04DX003 (sc), vehicle: water
  T/C: 77 % of control

## COC1C(N)C(OC2C(Oc3cccc4c(O)c5c(=O)oc6ccc(C)c7c(=O)oc(c34)c5c67)OC(C)C(O)C2(C)O)OC(C)C1O (configuration not stated)
dose: 2.5 mg/kg/injection, schedule: Q04DX003 (ip), vehicle: lactic acid
  T/C: 51 % of control
dose: 5.0 mg/kg/injection, schedule: Q04DX003 (ip), vehicle: lactic acid
  T/C: 49 % of control
dose: 10.0 mg/kg/injection, schedule: Q04DX003 (ip), vehicle: lactic acid
  T/C: 9 % of control

## O=C1c2c(O)cccc2-c2nn(CCNCCO)c3ccc(NCCNCCO)c1c23
dose: 11.0 mg/kg/injection, schedule: Q04DX003 (ip), vehicle: water
  T/C: -100 % of control

## CN(C)N=Nc1ccc(S(N)(=O)=O)cc1
dose: 100.0 mg/kg/injection, schedule: Q01DX010 (sc), vehicle: Klucel (hydroxypropylcellulose) (HPC)
  T/C: 75 % of control
dose: 200.0 mg/kg/injection, schedule: Q01DX010 (sc), vehicle: Klucel (hydroxypropylcellulose) (HPC)
  T/C: 47 % of control
dose: 400.0 mg/kg/injection, schedule: Q01DX010 (sc), vehicle: Klucel (hydroxypropylcellulose) (HPC)
  T/C: 42 % of control

## COC1CC(CC2CCC(C)C(C(C)C(=O)O)O2)OC2(OC(C)(C3CCC(C)(C4OC(C5OC(O)(CO)C(C)CC5C)CC4C)O3)CC2C)C1C (configuration not stated)
dose: 3.75 mg/kg/injection, schedule: Q04DX003 (sc), vehicle: Klucel (hydroxypropylcellulose) (HPC)
  T/C: 120 % of control
dose: 7.5 mg/kg/injection, schedule: Q04DX003 (sc), vehicle: Klucel (hydroxypropylcellulose) (HPC)
  T/C: 65 % of control
dose: 15.0 mg/kg/injection, schedule: Q04DX003 (sc), vehicle: Klucel (hydroxypropylcellulose) (HPC)
  T/C: 86 % of control

## Cc1cc(O)c(N=Nc2ccc(C(=O)O)cc2)cc1C
dose: 300.0 mg/kg/injection, schedule: Q04DX003 (sc), vehicle: saline with Tween-80
  T/C: 123 % of control
dose: 600.0 mg/kg/injection, schedule: Q04DX003 (sc), vehicle: saline with Tween-80
  T/C: 124 % of control
dose: 2400.0 mg/kg/injection, schedule: Q04DX003 (sc), vehicle: saline with Tween-80
  T/C: 92 % of control

## O=c1nc(Oc2ccccc2)nc2ncccn12
[4]
  T/C: 100 % of control
[5]
  T/C: 120 % of control
[6]
  T/C: 42 % of control
[7]
  T/C: 46 % of control

## Nc1nc([Se])c2ncn(C3OC(CO)C(O)C3O)c2n1 (configuration not stated)
dose: 2.0 mg/kg/injection, schedule: Q01DX010 (sc), vehicle: saline
  T/C: 85 % of control and 101 % of control
dose: 6.66 mg/kg/injection, schedule: Q04DX003 (ip), vehicle: saline
  T/C: 76 % of control
dose: 6.66 mg/kg/injection, schedule: Q04DX003 (sc), vehicle: saline
  T/C: 72 % of control
dose: 8.0 mg/kg/injection, schedule: Q01DX010 (ip), vehicle: saline
  T/C: 45 % of control
dose: 13.33 mg/kg/injection, schedule: Q04DX003 (ip), vehicle: saline
  T/C: 46 % of control
dose: 26.65 mg/kg/injection, schedule: Q04DX003 (ip), vehicle: saline
  T/C: 74 % of control
dose: 53.3 mg/kg/injection, schedule: Q04DX003 (ip), vehicle: saline
  T/C: 63 % of control
dose: 53.33 mg/kg/injection, schedule: Q04DX003 (sc), vehicle: saline
  T/C: 89 % of control

## CCCCCCCCCCCCCCCCCC(=O)OCC(=O)OCC(=O)[C@]1(O)Cc2c(O)c3c(c(O)c2[C@@H](OC2CC(N)C(O)C(C)O2)C1)C(=O)c1c(OC)cccc1C3=O (some centres not stated)
dose: 6.0 mg/kg/injection, schedule: Q01DX010 (sc), vehicle: water
  T/C: 48 % of control
dose: 12.0 mg/kg/injection, schedule: Q01DX010 (sc), vehicle: water
  T/C: 21 % of control

## C[n+]1c2cc(N)ccc2cc2ccc(N)cc21
dose: 1.56 mg/kg/injection, schedule: Q01DX010 (sc), vehicle: saline
  T/C: 79 % of control
dose: 3.13 mg/kg/injection, schedule: Q01DX010 (sc), vehicle: saline
  T/C: 66 % of control
dose: 6.25 mg/kg/injection, schedule: Q01DX010 (sc), vehicle: saline
  T/C: 100 % of control

## S=C=NCCc1ccccc1
[4]
  T/C: 161 % of control
[5]
  T/C: 156 % of control
[6]
  T/C: 72 % of control
[7]
  T/C: 113 % of control
